In patent publication US7112594B2, “Fused bicyclic amide compounds and medicinal use thereof” (Mitsubishi Pharma Corporation, priority 2000, dated 2006):

What was measured:
[1] = tested on: type II collagen induced arthritis; test: Type II collagen induced arthritis in DBA/1J mouse; format: in vivo; settings: repeated oral administration
rat lymphocytes = test: Proliferation of rat lymphocytes stimulated by PMA and calcium ionophore A23187 (tritium thymidine uptake); format: cell-based; settings: Lymphocyte, PMA 10 ng/ml and A23187 100 ng/ml
Procedure: An RPMI1640 medium (Sigma) was used as a medium, to which kanamycin sulfate (60 μg/ml) and penicillin G potassium (100 units/ml) were added, and then 10% of fetal calf serum (FCS, Gibco) inactivated at 56° C. for 30 min was added and used for the test. The compound of the present invention or a pharmaceutically acceptable salt thereof was dissolved in dimethyl sulfoxide and diluted with the 10% FCS-containing RPMI1640 medium to a desired concentration and used for the test.
The spleens were aseptically removed from 6-week-old male F344 rats or LEW rats (Charles River Japan, Inc.) and minced with tweezers in RPMI1640 medium and then prepared into a single cell suspension of splenic cell. After hematolysis by a hypotonicity treatment using a 9:1 mixed solution of 0.83% aqueous ammonium chloride solution and Tris-HCl buffer (pH 7.65), the suspension was passed through a nylon wool column to give nylon non-adhesive T cell concentration fraction for use. The cell suspension prepared using 10% FCS-containing RPMI1640 medium was added to a flat 96 well microtest plate at 5×10^5 cells/well. The compound of the present invention or a pharmaceutically acceptable salt thereof at a concentration of 0.0001-100 μM, 10 ng/ml of PMA and 100 ng/ml of A23187 were added and the mixture was cultured at 37° C., 5% carbon dioxide and 95% air for 44 hr. After the completion of the culture, tritium thymidine (18.5 kBq/well, specific activity: 185 GBq/mmol, Amersham Pharmacia Biotech) was added and the mixture was cultured at 37° C., 5% carbon dioxide, 95% air for further 4 hr. Then using a cell harvester, the cells were recovered on a glass fiber filter, and using a scintillation counter (MicroBeta 1460) for plate, the radioactivity taken into the cells was measured, and the proliferation of rat lymphocyte induced by stimulation with PMA and A23187 was measured. To be specific, the inhibition rate was calculated by the following formula based on average tritium thymidine uptake (cpm) by lymphocyte in the wells to which various concentrations of the compound of the present invention were added. [formula]
Based on the dose-response curve obtained by plotting average value of tritium thymidine uptake (cpm) or inhibition rate in the longitudinal axis and concentration in the horizontal axis, the concentration (IC50) of the compound that inhibits the level to 50% of the value of the control group was determined by nonlinear regression.

SMILES	improvement of severity of developed arthritis, swelling of the limbs or destruction of joint ([1]; 10 mg/kg body weight)	death ([1]; 30 mg/kg body weight)	IC50 (rat lymphocytes) [nM]
Cc1c(C(=O)Nc2ccc(C(F)(F)F)cc2)cnn1-c1ccc(F)cc1 [1-(4-fluorophenyl)-N-(4-trifluoromethylphenyl)-5-methylpyrazole-4-carboxamide]	did not improve	confirmed death	
Cc1[nH]c2ccc(F)cc2c1C(=O)Nc1ccc(Oc2ccccc2)c(C#N)c1 [Example 6, N-(3-cyano-4-phenoxyphenyl)-5-fluoro-2-methyl-1H-indole-3-carboxamide]			390
N#Cc1cc(NC(=O)c2cc3ccccc3s2)ccc1N1CCN(CCO)CC1 [Example 11, N-[3-cyano-4-(4-(2-hydroxyethyl)piperazin-1-yl)phenyl]benzo[b]thiophene-2-carboxamide]			1500
N#Cc1cc(NC(=O)c2cc3ccccc3o2)ccc1N1CCC(CCO)CC1 [Example 20, N-{3-cyano-4-[4-(2-hydroxyethyl)piperidin-1-yl]phenyl}benzo[b]furan-2-carboxamide]			230
CC(C)c1ccc2c(O)c(C(=O)Nc3ccc(OCC(C)(C)C)c(C#N)c3)sc2n1 [Example 28, N-(3-cyano-4-neopentyloxyphenyl)-3-hydroxy-6-isopropylthieno[2,3-b]pyridine-2-carboxamide]			2000
